For test [1], the system named is GPCR135 binding sites in rat brain. Put plainly: Receptor autoradiography, distribution of [125I]R3/I5 binding sites in rat brain. The arrangement: key: −: not detected; +: low density; ++: moderate density; +++: high density. The note with it: 7 pM, n = 3. As for the experimental part:
(§1) Rats were asphyxiated by carbon dioxide. Brains were immediately removed from the skull and rapidly frozen in dry-ice. Twenty-micron-thick frontal sections were cut using a Cryostat-microtome (Microm HM505E, Mikron, San Diego, Calif.) and thaw-mounted on adhesive microscope slides (Superfrost^+ Plus, VWR). The sections were kept at −70° C. until use. The sectioning protocol for the regional distribution study included series of coronal sections covering the entire brain.
(§2) Sections were thawed and dried under a cold air stream and then pre-incubated for 15 min. at room temperature in incubation buffer (20 mM HEPES, pH 7.4, 120 mM NaCl2, 0.22 mM KH2PO4, 1.3 mM CaCl2, 0.8 mM MgSO4) by immersing sections in a 400 ml jar. Sections were dried again under a cold air stream and incubated for 60 min. with 7 pM [^125I]-R3/I5 (specific activity, 2200 Ci/mmole) in incubation buffer containing 0.5% BSA and protease inhibitor cocktail. […] Nonspecific binding was determined in the presence of 100 nM of human R3. After incubation, the excess radioligand was washed off by immersing the slides in the jar containing incubation buffer at 4° C. (3 times 10 min.) followed by a quick immersion in water. Sections were dried and exposed to Fujifilm Imaging plates (BAS-MS 2025) for 48 hrs. The imaging plates were scanned using the Fuji Bio-Imaging Analyzer System (BAS-5000, Fuji Medical System, CT) and visualized using ImageGauge V3.12 software (Fuji Medical System, CT).
Cresyl-violet staining was performed on adjacent sections and the regions were identified using the rat brain atlas of Paxinos and Watson (Paxinos et al., 1998, The Rat Brain in Stereotaxic Coordinates, New York, Academic Press (publisher)). For illustration purposes, sections were exposed to autoradiography film ((Kodak Omat AR, Rochester N.Y.). After a 4-week exposure, they were automatically developed and fixed in a Konica SRY-101A machine (Konica Medical Corp., Wayne N.J.). Adobe Photoshop 7.0 and Illustrator 9.0 were used for preparation of the figures.

Test [2] addresses T1, LGR7 (Homo sapiens, UniProt Q9HBX9).
T1 construct: Human LGR7 cDNA containing the complete coding region was PCR amplified; expressed in transfected cells
T1 sequence (Q9HBX9 1-757): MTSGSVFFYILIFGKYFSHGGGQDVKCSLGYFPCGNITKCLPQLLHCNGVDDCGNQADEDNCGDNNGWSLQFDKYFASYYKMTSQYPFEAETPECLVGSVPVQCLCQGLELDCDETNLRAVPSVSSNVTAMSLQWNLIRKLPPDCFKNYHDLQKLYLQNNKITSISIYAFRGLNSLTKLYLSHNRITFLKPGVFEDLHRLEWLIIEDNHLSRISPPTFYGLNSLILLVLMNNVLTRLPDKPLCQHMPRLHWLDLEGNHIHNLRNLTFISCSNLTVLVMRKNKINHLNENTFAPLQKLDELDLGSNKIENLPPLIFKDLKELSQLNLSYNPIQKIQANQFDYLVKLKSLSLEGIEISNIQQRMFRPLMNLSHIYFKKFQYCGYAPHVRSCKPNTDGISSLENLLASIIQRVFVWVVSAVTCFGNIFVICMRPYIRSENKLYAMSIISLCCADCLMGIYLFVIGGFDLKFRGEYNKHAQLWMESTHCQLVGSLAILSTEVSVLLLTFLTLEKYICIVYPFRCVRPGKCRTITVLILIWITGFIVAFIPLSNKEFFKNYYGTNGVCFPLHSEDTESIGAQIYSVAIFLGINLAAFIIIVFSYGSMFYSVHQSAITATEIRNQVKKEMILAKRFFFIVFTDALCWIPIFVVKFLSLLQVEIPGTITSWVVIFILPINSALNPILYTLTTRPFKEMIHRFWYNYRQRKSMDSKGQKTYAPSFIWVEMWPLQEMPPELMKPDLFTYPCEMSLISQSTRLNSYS
The experiment in a line: Binding of radioligands to COS-7 cells transfected with LGR7. The following applies: radioligand 100 pM. As for the experimental part:
(§3) FIGS. 5A-5D illustrate a comparative analysis of the binding specificities of [^125I]-relaxin-3 and [^125I]-R3/I5 for GPCR135 and LGR7. COS-7 cells in 6-well culture dishes were transfected with human GPCR135 and LGR7, respectively. Mock transfected COS-7 cells were used as the negative controls. [^125I]-relaxin-3 (FIG. 5A) or [^125I]-R3/I5 (FIG. 5B) was added to cells at a final concentration of 100 pM either in the absence or presence of 1 uM of unlabeled relaxin-3 to determine total binding and non-specific binding, respectively. FIG. 5C depicts an autoradiogram of [^125]-relaxin-3 binding in rat brain sagittal section. FIG. 5D depicts an autoradiogram of non-specific binding of [^125]-relaxin-3 as determined in the presence of 100 nM of unlabeled relaxin-3. FIG. 5E depicts an autoradiogram of [^125]-R3/I5 binding in rat brain sagittal section. […] binding of [^125]-R3/I5 as determined in the presence of 100 nM of unlabeled relaxin-3.

For test [3], the target named is T2, GPCR135 (Homo sapiens, UniProt Q9NSD7).
T2 construct: expressed in transfected cells
T2 sequence (Q9NSD7 1-469): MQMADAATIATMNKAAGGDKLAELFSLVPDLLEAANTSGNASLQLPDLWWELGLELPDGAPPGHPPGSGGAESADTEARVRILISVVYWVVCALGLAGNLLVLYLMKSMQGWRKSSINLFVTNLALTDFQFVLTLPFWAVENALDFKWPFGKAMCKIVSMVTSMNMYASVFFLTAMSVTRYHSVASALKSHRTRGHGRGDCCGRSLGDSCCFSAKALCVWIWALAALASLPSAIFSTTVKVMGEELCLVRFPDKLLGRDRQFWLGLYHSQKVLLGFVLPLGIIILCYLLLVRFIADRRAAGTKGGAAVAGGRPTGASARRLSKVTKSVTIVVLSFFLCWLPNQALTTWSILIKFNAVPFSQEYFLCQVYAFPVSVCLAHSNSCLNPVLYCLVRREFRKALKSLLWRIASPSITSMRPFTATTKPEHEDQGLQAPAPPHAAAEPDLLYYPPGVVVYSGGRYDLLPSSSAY
The experiment in a line: Binding of radioligands to COS-7 cells transfected with GPCR135. As for the experimental part: as §3

The subject of test [4] is [125I]-R3/I5 binding sites (GPCR135) in rat brain. The experiment in a line: Quantitative receptor autoradiography, inhibition of [125I]-R3/I5 binding on rat brain sections. The following applies: 7 pM [125I]-R3/I5; all regions investigated. How it is done: as §1
as §2, with “The imaging plates were scanned using the Fuji Bio-Imaging Analyzer System (BAS-5000, Fuji Medical System, CT) and visualized using ImageGauge V3.12 software (Fuji Medical System, CT).” left out

Ends that are not written are not given here.

Sequence of GPCR135 binding sites in rat brain (as listed by the source): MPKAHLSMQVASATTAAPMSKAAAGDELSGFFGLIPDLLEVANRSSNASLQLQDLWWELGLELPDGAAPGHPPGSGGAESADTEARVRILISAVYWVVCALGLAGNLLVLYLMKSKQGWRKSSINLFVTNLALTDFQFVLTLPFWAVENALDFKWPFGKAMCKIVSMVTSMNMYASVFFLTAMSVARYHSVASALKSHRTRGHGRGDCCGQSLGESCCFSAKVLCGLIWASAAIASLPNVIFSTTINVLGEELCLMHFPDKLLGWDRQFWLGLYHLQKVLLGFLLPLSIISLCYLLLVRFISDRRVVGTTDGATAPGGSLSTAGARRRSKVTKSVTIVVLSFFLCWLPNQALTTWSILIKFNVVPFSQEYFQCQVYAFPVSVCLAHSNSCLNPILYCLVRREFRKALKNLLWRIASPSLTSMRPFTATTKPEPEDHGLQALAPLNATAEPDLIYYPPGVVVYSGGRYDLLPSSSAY
Sequence of [125I]-R3/I5 binding sites (GPCR135) in rat brain (as listed by the source): as above

With “[^125I]-R3/I5: radioiodinated R3/I5 chimera used as tracer (RAAPYGVRLCGREFIRAVIFTCGGSRWQDLQTLCCTDGCSMTDLSALC; ends and bridges not checked; also: radioiodinated (125I), site not given here)”, the “[125I]R3/I5 binding sites, density” value in test [1] (Amygdaloid body: Amygdalohippocampal area) is listed as “+++”; in test [1] (Amygdaloid body: Bed nucleus stria terminalis), “++”; in test [1] (Amygdaloid body: Central nucleus) it was “++”; in test [1] (Amygdaloid body: Lateral nucleus), “++”; in test [1] (Amygdaloid body: Medial nucleus), “++”; in test [1] (Brain stem: Dorsal raphe, dorsal part), “+”. Besides, the “[125I]R3/I5 binding sites, density” value in test [1] (Brain stem: Inferior colliculus) was “++”; in test [1] (Brain stem: Interpeduncular nucleus) it was “+++”; in test [1] (Brain stem: Nucleus incertus), “++”; in test [1] (Brain stem: Periaqueductal gray area), “++”; in test [1] (Brain stem: Spinal trigeminal tract), “++”; in test [1] (Brain stem: Superior colliculus), “+++”. Also, the “[125I]R3/I5 binding sites, density” value in test [1] (Cortex: Motor), in test [1] (Cortex: Piriform), in test [1] (Cortex: Somatosensory), in test [1] (Cortex: Temporal), in test [1] (Cortex: Visual) and in test [1] (Habenula: Medial) was “++” in each case. The “[125I]R3/I5 binding sites, density” value is given as “+” in test [1] (Hippocampal formation: CAB field); “+” in test [1] (Hippocampal formation: Dentate gyrus); “−” in test [1] (Hypothalamus: Lateral nucleus); “++” in test [1] (Hypothalamus: Paraventricular nucleus); “++” in test [1] (Hypothalamus: Supraoptic nucleus); “+++” in test [1] (Olfactory System: Anterior olfactory nucleus). Besides, the “[125I]R3/I5 binding sites, density” value is listed as “+++” in test [1] (Olfactory System: Olfactory bulb); “+” in test [1] (Septal region: Lateral); “++” in test [1] (Thalamus: Centro lateral); “++” in test [1] (Thalamus: Centro medial); “++” in test [1] (Thalamus: Paraventricular). Besides, in test [2], the “binding to LGR7, in words” value is reported as “did not demonstrate significant binding to LGR7”. The “non-specific binding, in words” value in test [3] (in presence of 1 uM unlabeled relaxin-3) is “lower non-specific binding than [^125I]-relaxin-3”. Also, the “binding to GPCR135 expressing cells, in words” value in test [3] (radioligand 100 pM) is “high affinity”.

Regarding “Relaxin: human relaxin (R1) used as competitor in Example 6 (KWKDDVIKLCGRELVRAQIAICGMSTWSRPYVALFEKCCLIGCTKRSLAKYC)”, the “displacement of [125I]-R3/I5 binding sites, in words” value in test [4] was “did not displace any significant amount of [^125I]-R3/I5 binding sites at concentrations of up to 100 nM”.
